Patent US20100159093A1, “METHOD OF TREATING FOODSTUFF” (priority 2008, published 2010)

Assays:
[1] = test system: psychrotrophs in raw milk; details: 7° C., closed system, Dechemi et al.; cited from earlier work
Bacillus cereus = test: Number of Bacillus cereus bacteria in raw milk (MYP dish) under nitrogen gas; assay type: cell-based; details: 6.0° C., N2 environment (40 ml/min), after 7 days
Procedure: (§1) With the device shown in FIG. 1, the effect of nitrogen gas on the natural microflora in raw milk (volume approximately 125 ml) was examined by replacing the air (control) in an open vessel (volume approximately 250 ml) at a constant temperature, with a flow-through of 100% nitrogen gas (purity 99.999%, manufacturer AGA) at two different flow-through rates: N1=120 ml/min, N2=40 ml/min.
Two flow-through rates of the nitrogen gas were used in the study; (N2) 40 ml/min and (N1) 120 ml/min.

psychrotrophs = test: Growth of psychrotrophs in raw milk under nitrogen gas; assay type: cell-based; details: 12.0° C., N1 environment (120 ml/min)
Procedure: With the device shown in FIG. 1, the effect of nitrogen gas on the natural microflora in raw milk (volume approximately 125 ml) was examined by replacing the air (control) in an open vessel (volume approximately 250 ml) at a constant temperature, with a flow-through of 100% nitrogen gas (purity 99.999%, manufacturer AGA) at two different flow-through rates: N1=120 ml/min, N2=40 ml/min. The temperature of the raw milk in the sample bottles was adjusted by means of the thermostat (14) of the water bath to bring the temperature of the milk to 6.0° C., 7.0° C. or 12.0° C. The temperature variation in the vessel was less than ±0.1° C. The effect of nitrogen gas on the growth of the microflora in a raw milk sample at 12.0° C. Two flow-through rates of the nitrogen gas were used in the study: (▴) 40 ml/min and ([…]) 120 ml/min. […] The following bacterial levels were determined in the samples: The effect of nitrogen gas on the growth of the microflora in a raw milk sample at 12.0° C. Two flow-through rates of the nitrogen gas were used in the study: (▴) 40 ml/min and ([…]) 120 ml/min. […] The following bacterial levels were determined in the samples: […]

[2] = test system: anaerobically cultivated phospholipase-producing bacteria; test: Number of anaerobically cultivated phospholipase-producing bacteria in raw milk under nitrogen gas; assay type: cell-based; details: 12.0° C., FIG. 5K
Procedure: (§2) With the device shown in FIG. 1, the effect of nitrogen gas on the natural microflora in raw milk (volume approximately 125 ml) was examined by replacing the air (control) in an open vessel (volume approximately 250 ml) at a constant temperature, with a flow-through of 100% nitrogen gas (purity 99.999%, manufacturer AGA) at two different flow-through rates: N1=120 ml/min, N2=40 ml/min. The temperature of the raw milk in the sample bottles was adjusted by means of the thermostat (14) of the water bath to bring the temperature of the milk to 6.0° C., 7.0° C. or 12.0° C. The temperature variation in the vessel was less than ±0.1° C. The effect of nitrogen gas on the growth of the microflora in a raw milk sample at 12.0° C. Two flow-through rates of the nitrogen gas were used in the study: (▴) 40 ml/min and ([…]) 120 ml/min. […] The following bacterial levels were determined in the samples: FIG. 5A: Total bacteria count (p.m.y./ml) FIG. 5B: Total number of psychrotrophs (p.m.y./ml) FIG. 5C: Total number of proteolytic bacteria (p.m.y./ml) FIG. 5D: Total number of lipolytic bacteria (p.m.y./ml) FIG. 5E: Total number of bacteria producing phospholipase (p.m.y./ml). […]

[3] = test system: psychrotrophic bacteria in raw milk and lactic acid bacteria; details: 4° C., closed vessel, Murray et al.; cited from earlier work
four Pseudomonas strains = details: 15° C., Eyles et al.; cited from earlier work
anaerobic microbes = test: Growth of anaerobically cultivated bacteria in raw milk under nitrogen gas; assay type: cell-based; details: 12.0° C., N1 environment (120 ml/min), Example 5, FIG. 5H
Procedure: as §2

[4] = test system: bacteria producing phospholipase; test: Number of phospholipase-producing bacteria (aerobic cultivation) in raw milk under nitrogen gas; assay type: cell-based
Procedure: as §1
The temperature of the raw milk in the sample bottles was adjusted by means of the thermostat (14) of the water bath to bring the temperature of the milk to 6.0° C., 7.0° C. or 12.0° C. The temperature variation in the vessel was less than ±0.1° C.
The effect of nitrogen gas on the growth of the microflora in a raw milk sample at 12.0° C. Two flow-through rates of the nitrogen gas were used in the study: (▴) 40 ml/min and ([…]) 120 ml/min. […] The following bacterial levels were determined in the samples:
FIGS. 7A-C show the effect, in three different samples of raw milk (samples A, B and C), of nitrogen gas at 6.0° C. on the number of the bacteria which produce phospholipase. Two flow-through rates of the nitrogen gas were used in the study: (▴) 40 ml/min, i.e. the N2 environment, and ([…]) 120 ml/min, i.e. the N1 environment.

haemolytic bacteria = test: Number of haemolytic bacteria in raw milk (blood culture dishes) under nitrogen gas; assay type: cell-based; details: 12.0° C., following four days of treatment
Text: It is possible to measure the effectiveness of nitrogen gas for preventing growth of phospholipase for instance as a difference in the number of haemolytic microbes in the foodstuff or foodstuff material, which is an indication of the growth-preventing effect of the nitrogen gas, which effect is directed at the microbes, which produce phospholipase-transmitted virulence factors (see Example 6 below).
as §1
Two flow-through rates of the nitrogen gas were used in the study: (grey) 40 ml/min and (black) 120 ml/min.

## N#N [nitrogen gas]
[1]
  effect of inhibiting the protease activity, among the gas alternatives tested: neither the best nor the worst one
  preventing the growth of the microbes and inhibiting the lipase activity, among the protecting gases used: least effective
Bacillus cereus
  elimination of bacteria of the B. cereus type from raw milk: adequate for eliminating the bacteria of the B. cereus type
psychrotrophs; Example 4 sample
  growth of the psychrotrophs: no longer prevents the growth of the psychrotrophs, instead it delays it
psychrotrophs; Example 5 sample
  growth of the psychrotrophs: substantially delay
[2]; N1 environment (120 ml/min)
  growth of the anaerobic bacteria which secrete phospholipase: total prevention of growth
[2]; N2 environment (40 ml/min)
  growth of the anaerobic bacteria which secrete phospholipase: total prevention of growth
[3]
  growth of the psychrotrophic bacteria in raw milk and of the lactic acid bacteria: only slightly slowed down the growth
  production of the proteolytic exoenzymes by the psychrotrophic bacteria: effectively prevented the production
Four Pseudomonas strains
  inhibition of Pseudomonas strains: did not establish that pure nitrogen is capable of significantly inhibiting
Anaerobic microbes
  growth of anaerobic microbes: able to delay the growth
[4]; 6° C., N1 environment (120 ml/min), adequately long treatment period, three raw milk samples
  elimination of the bacteria which produce phospholipase: possible to eliminate the bacteria which produce phospholipase
[4]; 12.0° C., N1 environment (120 ml/min), Example 4 sample
  time from beginning of nitrogen gas treatment to elimination of microbes which produce phospholipase: ≤ 96 h
[4]; 12.0° C., N1 environment (120 ml/min), Examples 4 and 5, FIG. 5E
  growth of the aerobic bacteria which secrete phospholipase: total prevention of growth
[4]; 12.0° C., N2 environment (40 ml/min), Example 4 sample
  growth of the number of the microbes which produce phospholipase: ceases in the N2 environment after 3 days
[4]; 12.0° C., N2 environment (40 ml/min), after 2 days, FIG. 5E
  growth of the aerobic bacteria which secrete phospholipase: total prevention of growth
[4]; at 7° C.
  growth-preventing effect on phospholipase-positive bacteria: impossible to detect this effect
[4]; at 12° C.
  growth-preventing effect on phospholipase-positive bacteria: the effect of the nitrogen gas was obvious
Haemolytic bacteria; N1 environment (120 ml/min)
  haemolytic microbes in the raw milk: none
Haemolytic bacteria; N2 environment (40 ml/min)
  haemolytic microbes, less than in the control environment: 2 log-units
